# In PubChem BioAssay AID1963963 (Molecular Pharmacology Branch, DTP, NCI, 2024):
# Test system: 958667-338-R-J2-PDC tumor spheroids viability
# Test: Anticancer human tumor 958667-338-R-J2-PDC patient-derived colon adenocarcinoma cell line growth inhibition [PI3K]
# Settings: spheroids with HUVEC and MSC; for IC50: curve of first compound; for viability, T/C: stronger effect = lower value
# Summary of the method: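 Tumor cells were combined with HUVEC and MSCs into spheroids, then dosed with PI3K-inhibitor combinations over half-log ranges capped near clinical Cmax or 10 microM.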
# [1] = second compound 0.0316 µM, first compound 0.0316 µM
# [2] = second compound 0.0316 µM, first compound 0.1 µM
# [3] = second compound 0.0316 µM, first compound 0.316 µM
# [4] = second compound 0.0316 µM, first compound 1 µM
# [5] = second compound 0.0316 µM, first compound 3.16 µM
# [6] = second compound 0.0316 µM, first compound 10 µM
# [7] = second compound 0.1 µM, first compound 0.0316 µM
# [8] = second compound 0.1 µM, first compound 0.1 µM
# [9] = second compound 0.1 µM, first compound 0.316 µM
# [10] = second compound 0.1 µM, first compound 1 µM
# [11] = second compound 0.1 µM, first compound 3.16 µM
# [12] = second compound 0.1 µM, first compound 10 µM
# [13] = second compound 0.316 µM, first compound 0.0316 µM
# [14] = second compound 0.316 µM, first compound 0.1 µM
# [15] = second compound 0.316 µM, first compound 0.316 µM
# [16] = second compound 0.316 µM, first compound 1 µM
# [17] = second compound 0.316 µM, first compound 3.16 µM
# [18] = second compound 0.316 µM, first compound 10 µM
# [19] = second compound 1 µM, first compound 0.0316 µM
# [20] = second compound 1 µM, first compound 0.1 µM
# [21] = second compound 1 µM, first compound 0.316 µM
# [22] = second compound 1 µM, first compound 1 µM
# [23] = second compound 1 µM, first compound 3.16 µM
# [24] = second compound 1 µM, first compound 10 µM
# [25] = second compound 3.16 µM, first compound 0.0316 µM
# [26] = second compound 3.16 µM, first compound 0.1 µM
# [27] = second compound 3.16 µM, first compound 0.316 µM
# [28] = second compound 3.16 µM, first compound 1 µM
# [29] = second compound 3.16 µM, first compound 3.16 µM
# [30] = second compound 3.16 µM, first compound 10 µM
# [31] = second compound 10 µM, first compound 0.0316 µM
# [32] = second compound 10 µM, first compound 0.1 µM
# [33] = second compound 10 µM, first compound 0.316 µM
# [34] = second compound 10 µM, first compound 1 µM
# [35] = second compound 10 µM, first compound 3.16 µM
# [36] = second compound 10 µM, first compound 10 µM
# [37] = second compound 0.0316 µM, first compound 0.00316 µM
# [38] = second compound 0.0316 µM, first compound 0.01 µM
# [39] = second compound 0.1 µM, first compound 0.00316 µM
# [40] = second compound 0.1 µM, first compound 0.01 µM
# [41] = second compound 0.316 µM, first compound 0.00316 µM
# [42] = second compound 0.316 µM, first compound 0.01 µM
# [43] = second compound 1 µM, first compound 0.00316 µM
# [44] = second compound 1 µM, first compound 0.01 µM
# [45] = second compound 3.16 µM, first compound 0.00316 µM
# [46] = second compound 3.16 µM, first compound 0.01 µM
# [47] = second compound 10 µM, first compound 0.00316 µM
# [48] = second compound 10 µM, first compound 0.01 µM
# 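Further: spheroids exposed to compounds for seven days before readout.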
compound,measurement,setting,value
CC(C)NCC(C(=O)N1CCN(c2ncnc3c2C(C)CC3O)CC1)c1ccc(Cl)cc1 (stereo not drawn) + CC(Nc1ncnc2nc[nH]c12)c1cc2cccc(Cl)c2c(=O)n1-c1ccccc1,IC50,second compound 0.0316 µM,> 10 µM
same,IC50,second compound 0.1 µM,> 10 µM
same,IC50,second compound 0.316 µM,> 10 µM
same,IC50,second compound 1 µM,> 10 µM
same,IC50,second compound 3.16 µM,> 10 µM
same,IC50,second compound 10 µM,> 10 µM
same,"viability, T/C",[1],81.9%
same,"viability, T/C",[2],97.3%
same,"viability, T/C",[3],72.1%
same,"viability, T/C",[4],82%
same,"viability, T/C",[5],89.7%
same,"viability, T/C",[6],64%
same,"viability, T/C",[7],102%
same,"viability, T/C",[8],95.7%
same,"viability, T/C",[9],86.5%
same,"viability, T/C",[10],95.7%
same,"viability, T/C",[11],92.4%
same,"viability, T/C",[12],68.7%
same,"viability, T/C",[13],94.7%
same,"viability, T/C",[14],104%
same,"viability, T/C",[15],80%
same,"viability, T/C",[16],94%
same,"viability, T/C",[17],83.3%
same,"viability, T/C",[18],70.5%
same,"viability, T/C",[19],85.9%
same,"viability, T/C",[20],80.6%
same,"viability, T/C",[21],93.4%
same,"viability, T/C",[22],101%
same,"viability, T/C",[23],77.8%
same,"viability, T/C",[24],63.4%
same,"viability, T/C",[25],77.4%
same,"viability, T/C",[26],87.5%
same,"viability, T/C",[27],102%
same,"viability, T/C",[28],84.2%
same,"viability, T/C",[29],80.2%
same,"viability, T/C",[30],64.7%
same,"viability, T/C",[31],91.2%
same,"viability, T/C",[32],88.4%
same,"viability, T/C",[33],79.3%
same,"viability, T/C",[34],83.2%
same,"viability, T/C",[35],81.7%
same,"viability, T/C",[36],55.2%
CCN1CCN(Cc2ccc(Nc3ncc(F)c(-c4cc(F)c5nc(C)n(C(C)C)c5c4)n3)nc2)CC1 + CC(Nc1ncnc2nc[nH]c12)c1cc2cccc(Cl)c2c(=O)n1-c1ccccc1,IC50,second compound 0.0316 µM,> 1 µM
same,IC50,second compound 0.1 µM,> 1 µM
same,IC50,second compound 0.316 µM,> 1 µM
same,IC50,second compound 1 µM,> 1 µM
same,IC50,second compound 3.16 µM,> 1 µM
same,IC50,second compound 10 µM,> 1 µM
same,"viability, T/C",[37],91.2%
same,"viability, T/C",[38],98.2%
same,"viability, T/C",[1],98.8%
same,"viability, T/C",[2],76.2%
same,"viability, T/C",[3],66.1%
same,"viability, T/C",[4],63.4%
same,"viability, T/C",[39],87.2%
same,"viability, T/C",[40],88.9%
same,"viability, T/C",[7],87.3%
same,"viability, T/C",[8],83%
same,"viability, T/C",[9],68.8%
same,"viability, T/C",[10],65.2%
same,"viability, T/C",[41],89.2%
same,"viability, T/C",[42],97%
same,"viability, T/C",[13],82.2%
same,"viability, T/C",[14],70.8%
same,"viability, T/C",[15],71.4%
same,"viability, T/C",[16],71.2%
same,"viability, T/C",[43],102%
same,"viability, T/C",[44],71.1%
same,"viability, T/C",[19],86.2%
same,"viability, T/C",[20],66.1%
same,"viability, T/C",[21],69%
same,"viability, T/C",[22],66.2%
same,"viability, T/C",[45],108%
same,"viability, T/C",[46],89.7%
same,"viability, T/C",[25],84%
same,"viability, T/C",[26],65.5%
same,"viability, T/C",[27],64%
same,"viability, T/C",[28],55.9%
same,"viability, T/C",[47],90%
same,"viability, T/C",[48],82.8%
same,"viability, T/C",[31],77.8%
same,"viability, T/C",[32],57.8%
same,"viability, T/C",[33],57.8%
same,"viability, T/C",[34],53.9%
C[C@@H](NC(=O)c1ncnc(N)c1Cl)c1ncc(C(=O)Nc2cc(C(F)(F)F)c(Cl)cn2)s1 + CC(Nc1ncnc2nc[nH]c12)c1cc2cccc(Cl)c2c(=O)n1-c1ccccc1,IC50,second compound 0.0316 µM,> 10 µM
same,IC50,second compound 0.1 µM,> 10 µM
same,IC50,second compound 0.316 µM,> 10 µM
same,IC50,second compound 1 µM,> 10 µM
same,IC50,second compound 3.16 µM,> 10 µM
same,IC50,second compound 10 µM,> 10 µM
same,"viability, T/C",[1],129%
same,"viability, T/C",[2],114%
same,"viability, T/C",[3],99.7%
same,"viability, T/C",[4],95.9%
same,"viability, T/C",[5],84.1%
same,"viability, T/C",[6],74.9%
same,"viability, T/C",[7],98%
same,"viability, T/C",[8],115%
same,"viability, T/C",[9],99.9%
same,"viability, T/C",[10],108%
same,"viability, T/C",[11],97.6%
same,"viability, T/C",[12],73.3%
same,"viability, T/C",[13],98.2%
same,"viability, T/C",[14],106%
same,"viability, T/C",[15],96.3%
same,"viability, T/C",[16],102%
same,"viability, T/C",[17],94.3%
same,"viability, T/C",[18],94.3%
same,"viability, T/C",[19],83.7%
same,"viability, T/C",[20],93.3%
same,"viability, T/C",[21],102%
same,"viability, T/C",[22],100%
same,"viability, T/C",[23],89.1%
same,"viability, T/C",[24],73.2%
same,"viability, T/C",[25],112%
same,"viability, T/C",[26],89%
same,"viability, T/C",[27],96.1%
same,"viability, T/C",[28],82.6%
same,"viability, T/C",[29],99.4%
same,"viability, T/C",[30],75.5%
same,"viability, T/C",[31],110%
same,"viability, T/C",[32],98.5%
same,"viability, T/C",[33],96.5%
same,"viability, T/C",[34],96.1%
same,"viability, T/C",[35],92.9%
same,"viability, T/C",[36],107%
Cn1ncnc1[C@H]1c2n[nH]c(=O)c3cc(F)cc(c23)N[C@@H]1c1ccc(F)cc1 + CC(Nc1ncnc2nc[nH]c12)c1cc2cccc(Cl)c2c(=O)n1-c1ccccc1,IC50,second compound 0.0316 µM,> 0.1 µM
same,IC50,second compound 0.1 µM,> 0.1 µM
same,IC50,second compound 0.316 µM,> 0.1 µM
same,IC50,second compound 1 µM,> 0.1 µM
same,IC50,second compound 3.16 µM,> 0.1 µM
same,IC50,second compound 10 µM,> 0.1 µM
same,"viability, T/C","second compound 0.0316 µM, first compound 0.000316 µM",103%
same,"viability, T/C","second compound 0.0316 µM, first compound 0.001 µM",114%
same,"viability, T/C",[37],105%
same,"viability, T/C",[38],110%
same,"viability, T/C",[1],113%
same,"viability, T/C",[2],98%
same,"viability, T/C","second compound 0.1 µM, first compound 0.000316 µM",103%
same,"viability, T/C","second compound 0.1 µM, first compound 0.001 µM",82.8%
same,"viability, T/C",[39],117%
same,"viability, T/C",[40],126%
same,"viability, T/C",[7],119%
same,"viability, T/C",[8],83.6%
same,"viability, T/C","second compound 0.316 µM, first compound 0.000316 µM",120%
same,"viability, T/C","second compound 0.316 µM, first compound 0.001 µM",114%
same,"viability, T/C",[41],111%
same,"viability, T/C",[42],116%
same,"viability, T/C",[13],118%
same,"viability, T/C",[14],94.7%
same,"viability, T/C","second compound 1 µM, first compound 0.000316 µM",109%
same,"viability, T/C","second compound 1 µM, first compound 0.001 µM",112%
same,"viability, T/C",[43],99.9%
same,"viability, T/C",[44],100%
same,"viability, T/C",[19],95.2%
same,"viability, T/C",[20],96.3%
same,"viability, T/C","second compound 3.16 µM, first compound 0.000316 µM",107%
same,"viability, T/C","second compound 3.16 µM, first compound 0.001 µM",109%
same,"viability, T/C",[45],99.2%
same,"viability, T/C",[46],89.9%
same,"viability, T/C",[25],94.7%
same,"viability, T/C",[26],89.8%
same,"viability, T/C","second compound 10 µM, first compound 0.000316 µM",93.7%
same,"viability, T/C","second compound 10 µM, first compound 0.001 µM",98.3%
same,"viability, T/C",[47],109%
same,"viability, T/C",[48],89.9%
same,"viability, T/C",[31],83.2%
same,"viability, T/C",[32],88.4%
